± gives the standard deviation of the averaged measurements.
What was measured:
Experiment in all cases: cell viability (CellTiter-Glo luminescence) relative to DMSO (fraction of DMSO control); higher = higher signal (more live cells for CellTiter-Glo)
Conditions in all cases: 72 h
DU4475 = test system: DU4475
Protocol: (§1)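 MOLM13, DU4475, HDQP1 and IGROV1 cells were treated with compounds in 384-well format for 72 h (KASUMI-1 in 96-well plates, RPMI + 10% FCS, 72 h). Viability was read with CellTiter-Glo and cell death with CellTox Green, both normalised to DMSO vehicle. Doses ranged 0.001-30 µM.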

HDQP1 = test system: HDQP1
Protocol: as §1

IGROV1 = test system: IGROV1
Protocol: as §1

MOLM13 = test system: MOLM13
Protocol: as §1

KASUMI-1 = test system: KASUMI-1
Protocol: as §1

Compound | cell viability (DU4475; 0.01 µM) | cell viability (DU4475; 0.1 µM) | cell viability (DU4475; 0.3 µM) | cell viability (DU4475; 1 µM) | cell viability (DU4475; 3 µM) | cell viability (DU4475; 10 µM) | cell viability (DU4475; 30 µM) | cell viability (HDQP1; 0.01 µM) | cell viability (HDQP1; 0.1 µM) | cell viability (HDQP1; 0.3 µM) | cell viability (HDQP1; 1 µM) | cell viability (HDQP1; 3 µM) | cell viability (HDQP1; 10 µM) | cell viability (HDQP1; 30 µM) | cell viability (IGROV1; 0.01 µM) | cell viability (IGROV1; 0.1 µM) | cell viability (IGROV1; 0.3 µM) | cell viability (IGROV1; 1 µM) | cell viability (IGROV1; 3 µM) | cell viability (IGROV1; 10 µM) | cell viability (IGROV1; 30 µM) | cell viability (MOLM13; 0.01 µM) | cell viability (MOLM13; 0.1 µM) | cell viability (MOLM13; 0.3 µM) | cell viability (MOLM13; 1 µM) | cell viability (MOLM13; 3 µM) | cell viability (MOLM13; 10 µM) | cell viability (MOLM13; 30 µM) | cell viability (KASUMI-1; 0.000948683 µM) | cell viability (KASUMI-1; 0.003 µM) | cell viability (KASUMI-1; 0.00948683 µM) | cell viability (KASUMI-1; 0.03 µM) | cell viability (KASUMI-1; 0.0948683 µM) | cell viability (KASUMI-1; 0.3 µM) | cell viability (KASUMI-1; 0.948683 µM) | cell viability (KASUMI-1; 3 µM) | cell viability (KASUMI-1; 9.48683 µM) | cell viability (KASUMI-1; 30 µM)
C=CCCn1cc(-c2cc(C(=O)N3CCOCC3)cc3c2ncn3C)c2cc[nH]c2c1=O [GNE-371] | 1.01 ± 0.017 | 1.01 ± 0.026 | 1.02 ± 0.023 | 1.01 ± 0.029 | 1.02 ± 0.027 | 1.03 ± 0.036 | 1.05 ± 0.051 | 1.04 ± 0.04 | 1.03 ± 0.047 | 1.02 ± 0.036 | 0.975 ± 0.04 | 0.971 ± 0.055 | 0.999 ± 0.056 | 0.979 ± 0.047 | 1.07 ± 0.11 | 1.02 ± 0.07 | 0.935 ± 0.064 | 0.975 ± 0.052 | 0.95 ± 0.11 | 0.931 ± 0.043 | 0.958 ± 0.054 | 1.01 ± 0.041 | 0.989 ± 0.05 | 0.986 ± 0.025 | 0.994 ± 0.031 | 0.986 ± 0.056 | 0.95 ± 0.067 | 0.928 ± 0.091 |  |  |  |  |  |  |  |  |  | 
Cn1cc(-c2cc(NC(=O)c3ccc(C(C)(C)C)cc3)n[nH]2)ccc1=O [3i-1248] | 1.01 ± 0.029 | 1.01 ± 0.031 | 1 ± 0.035 | 0.984 ± 0.043 | 0.893 ± 0.054 | 0.572 ± 0.078 | 0.0157 ± 0.016 | 0.995 ± 0.032 | 0.989 ± 0.033 | 0.981 ± 0.082 | 0.973 ± 0.046 | 0.913 ± 0.048 | 0.807 ± 0.054 | 0.269 ± 0.13 | 0.989 ± 0.047 | 0.982 ± 0.075 | 0.953 ± 0.12 | 0.861 ± 0.067 | 0.783 ± 0.047 | 0.568 ± 0.075 | 0.0746 ± 0.044 | 0.988 ± 0.09 | 0.912 ± 0.088 | 0.773 ± 0.053 | 0.459 ± 0.07 | 0.179 ± 0.049 | 0.00744 ± 0.0056 | -0.000138 ± 0.00087 | 1.15 ± 0.053 | 1.25 ± 0.078 | 1.36 ± 0.027 | 1.503 ± 0.0079 | 1.43 ± 0.11 | 1.41 ± 0.072 | 1.37 ± 0.046 | 1.11 ± 0.061 | 0.455 ± 0.036 | 0.00672 ± 0.00072
CC(C)(C)c1cc(NC(=O)Nc2ccc(-c3cn4c(n3)sc3cc(OCCN5CCOCC5)ccc34)cc2)no1 [quizartinib] | 1 ± 0.03 | 0.813 ± 0.038 | 0.336 ± 0.06 | 0.196 ± 0.052 | 0.0647 ± 0.034 | 0.317 ± 0.075 | 0.0882 ± 0.042 | 0.984 ± 0.052 | 1.01 ± 0.051 | 0.87 ± 0.054 | 0.807 ± 0.021 | 0.716 ± 0.088 | 0.84 ± 0.095 | 0.69 ± 0.13 | 1.08 ± 0.081 | 1.07 ± 0.1 | 0.721 ± 0.12 | 0.633 ± 0.12 | 0.468 ± 0.12 | 0.614 ± 0.093 | 0.384 ± 0.069 | 0.00342 ± 0.00075 | 0.00261 ± 0.00061 | 0.00141 ± 0.0005 | 0.00194 ± 0.00081 | 0.000901 ± 0.00082 | 0.00066 ± 0.00036 | 0.000483 ± 0.00064 |  |  |  |  |  |  |  |  |  | 

From the supplement of paper PMC11952222, “Development and comparison of single FLT3-inhibitors to dual FLT3/TAF1-inhibitors as an anti-leukemic approach” (PLOS One, 2025)
